Laboratory results from ChEMBL document CHEMBL3232984, “Synthesis and tripanocidal activity of ferrocenyl and benzyl diamines against Trypanosoma brucei and Trypanosoma cruzi” (Bioorg Med Chem Lett, 2014).

How the values were obtained:
HepG2 = assay: Cytotoxicity against human HepG2 cells by MTT assay; type: cell-based
Trypanosoma brucei [1] = assay: Antimicrobial activity against procyclic stage of Trypanosoma brucei 427 after 24 hrs by MTT assay; type: functional, organism-based; settings: Trypanosoma brucei, 427, 24 h
[2] = Safety index, ratio of IC50 for human HepG2 cells to IC50 for procyclic stage of Trypanosoma brucei 427; type: toxicity, cell-based; settings: HepG2 cells versus procyclic stage of Trypanosoma brucei 427, read-out: Ratio IC50
Trypanosoma brucei [3] = assay: Antimicrobial activity against […] 29-13 after 24 hrs by MTT assay; type: functional, organism-based; settings: 29-13, 24 h
[4] = Safety index, ratio of IC50 for human HepG2 cells to IC50 for […] 29-13; type: toxicity, cell-based; settings: read-out: Ratio IC50
Trypanosoma cruzi = assay: Antimicrobial activity against epimastigote stage of Trypanosoma cruzi Y after 72 hrs by MTT assay; type: functional, organism-based
[5] = Safety index, ratio of IC50 for human HepG2 cells to IC50 for epimastigote stage of Trypanosoma cruzi Y; type: toxicity, cell-based; settings: HepG2 cells versus epimastigote stage of Trypanosoma cruzi Y, read-out: Ratio IC50

| IC50 (Trypanosoma brucei [1]) | IC50 (Trypanosoma brucei [3]) | IC50 (Trypanosoma cruzi) | SMILES | IC50 (HepG2) | selectivity ratio [2] | selectivity ratio [4] | selectivity ratio [5] |
| --- | --- | --- | --- | --- | --- | --- | --- |
| 8.25 µM | 8.63 µM | 10.9 µM | COc1ccc(CNCCNCc2ccc(OC)cc2)cc1 | 991 µM | 120 | 115 | 90.9 |
| 4.61 µM | 5.16 µM | 109 µM | Oc1ccccc1CNCCNCc1ccccc1O | 148 µM | 32.1 | 28.7 | 1.36 |
| 12.3 µM | 16.8 µM | 51.4 µM | Clc1ccc(CNCCNCc2ccc(Cl)cc2Cl)c(Cl)c1 | 281 µM | 22.7 | 16.7 | 5.45 |

More lines, now with the values behind:

| SMILES | IC50 (Trypanosoma brucei [1]) | IC50 (Trypanosoma brucei [3]) | IC50 (Trypanosoma cruzi) | IC50 (HepG2) | selectivity ratio [2] | selectivity ratio [4] | selectivity ratio [5] |
| --- | --- | --- | --- | --- | --- | --- | --- |
| Cl.Cl.c1ccc(CNCCNCc2ccccc2)cc1 | 11.1 µM | 9.99 µM | 160 µM | 224 µM | 20.2 | 22.4 | 1.4 |
| O=[N+]([O-])c1ccc(CNCCNCc2ccc([N+](=O)[O-])cc2)cc1 | 36.6 µM | 19.2 µM | 122 µM | 590 µM | 16.1 | 30.7 | 4.84 |
| O=C(Cn1ccnc1[N+](=O)[O-])NCc1ccccc1 [BENZNIDAZOLE] | 208 µM | 150 µM | 34 µM | 2130 µM | 10.2 | 14.2 | 62.5 |
| N=C(N)c1ccc(OCCCCCOc2ccc(C(=N)N)cc2)cc1 [PENTAMIDINE] | 6.43 µM | 6.43 µM | 4.58 µM | 160 µM | 24.8 | 24.8 | 34.9 |
